Assay results: patent publication US20240254119A1 (THIRD HARMONIC BIO, INC., priority 2022, published 2024)

System: not listed separately
Experiment: Kinetic solubility assay
Format: physicochemical
Conditions: kinetic solubility, 50 mM PB (pH 7.4), shaken 24 hours at RT
Method in brief: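 Concentration in the filtrate was determined by UPLC-UV or HPLC-UV with a standard curve. Before that, compound (10 mM DMSO stock) in 50 mM PB at pH 7.4 was agitated 24 h at room temperature, then PTFE-filtered with centrifugation.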

| SMILES | Solubility (μM) |
| --- | --- |
| COC(=O)N1CC(c2nc(-c3ccc(C)c(NC(=O)c4cnn5ccc(C#N)cc45)c3)no2)C1 [Compound I-265] | ** (a solubility greater than 10 μM and less than or equal to 50 μM) |
| Cc1ccc(-c2noc(C34CC(F)(C3)C4)n2)cc1NC(=O)c1cnc2ccccn12 [Compound I-392] | *** (a solubility greater than 2 μM and less than or equal to 10 μM) |

Molecular target: T1, BCRP (BCRP-MDCKII monolayer) (Homo sapiens, UniProt Q9UNQ0)
T1 construct: host or cells: MDCKII (canine kidney) cells
T1 sequence (Q9UNQ0 1-655): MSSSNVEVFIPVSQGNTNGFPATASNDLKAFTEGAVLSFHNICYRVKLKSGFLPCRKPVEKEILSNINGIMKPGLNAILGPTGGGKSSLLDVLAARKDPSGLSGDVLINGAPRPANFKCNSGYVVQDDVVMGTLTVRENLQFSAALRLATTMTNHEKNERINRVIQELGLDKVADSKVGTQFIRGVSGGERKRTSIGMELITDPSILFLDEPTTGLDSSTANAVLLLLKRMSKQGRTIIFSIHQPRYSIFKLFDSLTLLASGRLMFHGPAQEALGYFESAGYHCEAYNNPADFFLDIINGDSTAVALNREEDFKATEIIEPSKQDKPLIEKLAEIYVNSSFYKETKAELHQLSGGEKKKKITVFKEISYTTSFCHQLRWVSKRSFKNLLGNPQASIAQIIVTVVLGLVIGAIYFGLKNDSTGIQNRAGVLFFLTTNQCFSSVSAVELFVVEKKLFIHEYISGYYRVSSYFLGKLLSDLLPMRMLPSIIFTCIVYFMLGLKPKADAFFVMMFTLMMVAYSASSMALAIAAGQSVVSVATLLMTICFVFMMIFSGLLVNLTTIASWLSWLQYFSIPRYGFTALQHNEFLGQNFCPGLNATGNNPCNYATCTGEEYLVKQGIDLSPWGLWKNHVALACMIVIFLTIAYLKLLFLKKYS
Experiment: MDCKII-BCRP bidirectional transport assay
Format: in vitro ADME
Conditions: not given
Method in brief: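 Efflux ratios were derived from Papp values, alongside recovery, with compounds quantified by LC-MS/MS. Both directions were tested in duplicate across BCRP-MDCKII monolayers used on days 12–15. Incubation ran 120 min at 37° C, 5% CO2, after a 15 min preincubation in assay buffer.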

| SMILES | MDCK-BCRP: Efflux Ratio |
| --- | --- |
| COC(=O)N1CC(c2nc(-c3ccc(C)c(NC(=O)c4cnn5ccc(C#N)cc45)c3)no2)C1 [Compound I-265] | 19.4 |
| Cc1ccc(-c2noc(C34CC(F)(C3)C4)n2)cc1NC(=O)c1cnc2ccccn12 [Compound I-392] | 2.82 |

Same assay, conditions: apical to basolateral

| SMILES | MDCK-BCRP: Papp A-B |
| --- | --- |
| COC(=O)N1CC(c2nc(-c3ccc(C)c(NC(=O)c4cnn5ccc(C#N)cc45)c3)no2)C1 [Compound I-265] | 1 10^−6 cm/s |
| Cc1ccc(-c2noc(C34CC(F)(C3)C4)n2)cc1NC(=O)c1cnc2ccccn12 [Compound I-392] | 7.51 10^−6 cm/s |

System: KIT phosphorylation in M-07e cells
Experiment: Cell-based KIT phosphorylation in M-07e cells by pKIT ELISA
Parameters: species or system human
Conditions: SCF stimulation
Protocol: Exemplary compounds were tested for ability to inhibit KIT phosphorylation using M-07e cells as monitored by pKIT ELISA. M-07e cells are also represented as M-07E, M-07e, M07-e, M07e, Mo7e, MO7e, M07E and MO7E. Assay procedures and results are described below.
Part I—Procedures for Determining KIT Inhibition inM-07e Cells Using pKTT ELISA Reagents and consumables: • M-07e cells: Initially obtained from Accegen, cat #ABC-TC1313 • p-cKIT Capture ELISA antibody: anti-Human Phospho-CD117/c-kit, R&D cat #DYC3527-5 • Anti-pY-HIRP antibody: R&D cat #DYC3527-5 • 25× wash buffer: Quantikine ELISA Wash Buffer 1, R&D cat #WA126 • PBS: R&D cat #DY006 • 96 well ELISA plates: Clear Polystyrene Microplates, R&D Cat #DY990 • 96 well Tissue culture plates: Corning® 96 Well TC-Treated Microplates, cat #CLS3894 • RPMI medium: ATCC® RPMI-1640 Medium, Cat #30-2001 • FBS: Fetal Bovine Serum, certified, United States Gibco, Thermo-Fisher 16000044 • GM-CSF: Recombinant Human GM-CSF Protein, R&D cat #215-GM • SCF: Recombinant Human SCF Protein, R&D cat #255-SC
• 1. Prepare cells: • a. Culture M-07e cells in RPMI medium+20% serum+GM-CSF+penstrep • To make 50 mL of growth medium • i. 40 mL RPMI media • ii. 10 mL FBS • iii. 10 uL of GM-CSF (100 ug/mL stock) • iv. 0.5 mL pen strep (100×) • b. Harvest cells • c. Re-suspend cells in 100% RPMI media (without serum) to final concentration of 1 million cells/mL • d. Transfer 100 uL of cell solution to 11 columns of a 96 well flat bottom cell culture plate • e. Incubate cells over night at 37 C • 2. Prepare ELISA Plates: • a. Dilute capture antibody to concentration 4 ug/mL in PBS • b. Coat 96 well microplates with 100 uL of capture antibody • c. Seal plates and incubate at RT overnight • d. Wash plates with 300 uL of wash buffer • e. Repeat wash • f. Treat plates with 300 uL of blocking buffer at RT for 1 hour • 3. Addition of compounds: • a. Prepare compound dilutions in RPMI media • i. Top test concentration is 1 uM • ii. Serially dilute compounds 3× for a total of 8 concentrations • b. Add 10 uL of 10× compound dilutions to cells • i. No compounds added in column 11 (for controls) • c. Incubate cells with compounds for 2 hours at 37 C • d. Stimulate cells with SCF for 5 min at concentration of 100 ng/mL (final) • i. In column 11 stimulate top 4 wells. Leave bottom 4 wells unstimulated • e. Remove cell culture media with multichannel pipet • f. Add 110 uL of Lysis buffer to all wells • g. Incubate plates at RT for 30 min while shaking • 4. Transfer 100 uL of cell lysis to each prepared Elisa plate • 5. Add 100 uL of the standard pc-KIT dilutions to the standard wells in column 12 • a. Top concentration=2000 pg/mL • b. 2× dilutions • 6. Incubate ELISA plate with cell lysate for 2 hours at RT • 7. Wash Plate with wash buffer (wash 1) • 8. Repeat wash (wash 2) • 9. […] Add 100 uL of diluted anti-pY-HRP (1/1000 dilution in detection antibody dilution buffer) and incubate 2 hours at RT • 11. Wash plate with wash buffer (wash 1) • 12. Repeat wash (wash 2) • 13. Repeat wash (wash 3) • 14. Add 100 uL of substrate solution to each well • 15. Incubate plates 20 min • Note: Plate development is indicated by aqua color • 16. Add 50 uL of stop solution to each well • 17. Determine optical density on Bitek Synergy Neo2: • a. Make new experiment
Select absorbance 1 set to 450 nm

| SMILES | IC50 |
| --- | --- |
| Cc1ccc(-c2noc(C3CC3(C)C)n2)cc1NC(=O)c1cnc2ccccn12 (stereo not drawn) [Compound I-127] | ≤ 50 nM |
| Cc1nc(-c2ccc(C)c(NC(=O)c3cnn4ccccc34)c2)no1 [Compound I-428] | ≤ 50 nM |

Molecular target: T2, PDGFRα (Homo sapiens, UniProt P16234)
T2 construct: purchased Millipore 14-467 (lot 26321_ACTI)
Experiment: Caliper biochemical assay, PDGFRα
Conditions: Table 6
Method in brief: (§1)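 Mobility-shift readout: after EDTA quench, fluorescent peptide and product are resolved electrophoretically on a LabChip and measured by fluorescence. Reactions contain enzyme, carboxyfluorescein peptide, ATP, Mn^2+ and compound, run 3 h at 25° C; 100% inhibition control lacks enzyme.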

T2 sequence (P16234 24-1089): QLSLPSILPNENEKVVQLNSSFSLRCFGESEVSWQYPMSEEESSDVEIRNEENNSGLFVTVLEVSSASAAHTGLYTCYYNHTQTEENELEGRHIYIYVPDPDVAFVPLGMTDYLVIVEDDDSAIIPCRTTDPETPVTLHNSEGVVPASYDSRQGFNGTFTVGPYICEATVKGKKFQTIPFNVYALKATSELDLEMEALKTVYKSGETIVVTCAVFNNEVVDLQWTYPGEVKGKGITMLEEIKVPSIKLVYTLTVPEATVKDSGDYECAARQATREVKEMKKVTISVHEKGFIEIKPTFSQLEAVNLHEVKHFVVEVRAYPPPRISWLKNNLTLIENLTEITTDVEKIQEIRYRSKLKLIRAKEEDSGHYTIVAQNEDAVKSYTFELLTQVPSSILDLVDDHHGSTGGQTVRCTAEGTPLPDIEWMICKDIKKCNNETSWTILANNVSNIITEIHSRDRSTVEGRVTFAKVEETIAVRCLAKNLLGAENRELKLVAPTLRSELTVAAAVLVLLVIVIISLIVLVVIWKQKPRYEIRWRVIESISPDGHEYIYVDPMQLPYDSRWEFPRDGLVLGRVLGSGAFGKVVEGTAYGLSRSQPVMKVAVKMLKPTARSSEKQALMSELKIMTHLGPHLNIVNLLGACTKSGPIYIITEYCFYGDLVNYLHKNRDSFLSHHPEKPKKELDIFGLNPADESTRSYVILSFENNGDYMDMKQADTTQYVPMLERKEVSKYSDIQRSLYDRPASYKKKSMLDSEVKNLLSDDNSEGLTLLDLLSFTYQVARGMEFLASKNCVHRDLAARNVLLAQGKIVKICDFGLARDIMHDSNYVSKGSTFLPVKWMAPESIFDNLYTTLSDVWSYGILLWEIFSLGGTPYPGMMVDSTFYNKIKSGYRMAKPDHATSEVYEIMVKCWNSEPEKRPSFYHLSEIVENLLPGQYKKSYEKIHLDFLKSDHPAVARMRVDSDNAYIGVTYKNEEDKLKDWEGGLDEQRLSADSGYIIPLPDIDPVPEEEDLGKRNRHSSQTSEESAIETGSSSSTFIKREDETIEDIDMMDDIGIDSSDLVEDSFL

| SMILES | IC50 |
| --- | --- |
| Cc1ccc(-c2noc(C3CC3(C)C)n2)cc1NC(=O)c1cnc2ccccn12 (stereo not drawn) [Compound I-127] | 50 to 500 nM |
| COC(=O)N1CC(c2nc(-c3ccc(C)c(NC(=O)c4cnn5ccc(C#N)cc45)c3)no2)C1 [Compound I-265] | 5000 to 30000 nM |
| Cc1ccc(-c2noc(C34CC(F)(C3)C4)n2)cc1NC(=O)c1cnc2ccccn12 [Compound I-392] | 500 to 5000 nM |
| Cc1nc(-c2ccc(C)c(NC(=O)c3cnn4ccccc34)c2)no1 [Compound I-428] | 500 to 5000 nM |

Molecular target: T3, wtKIT (Homo sapiens, UniProt P10721)
T3 construct: 1888289AM in the reaction mixtures
Experiment: HTRF biochemical assay, wtKIT (phosphorylation of a peptide substrate)
Conditions: Table 4
Method in brief: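 HTRF read-out of FAM-peptide (1 µM) phosphorylation after anti-phosphotyrosine antibody addition and EDTA quench. Reaction: 5.0 nM wtKIT, 400 µM ATP, 10 mM Mn2+, HEPES pH 7.5, 1% DMSO, 3 h, 25 °C; optional enzyme-compound preincubation; enzyme level set for 10-20% conversion.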

T3 sequence (P10721 26-976): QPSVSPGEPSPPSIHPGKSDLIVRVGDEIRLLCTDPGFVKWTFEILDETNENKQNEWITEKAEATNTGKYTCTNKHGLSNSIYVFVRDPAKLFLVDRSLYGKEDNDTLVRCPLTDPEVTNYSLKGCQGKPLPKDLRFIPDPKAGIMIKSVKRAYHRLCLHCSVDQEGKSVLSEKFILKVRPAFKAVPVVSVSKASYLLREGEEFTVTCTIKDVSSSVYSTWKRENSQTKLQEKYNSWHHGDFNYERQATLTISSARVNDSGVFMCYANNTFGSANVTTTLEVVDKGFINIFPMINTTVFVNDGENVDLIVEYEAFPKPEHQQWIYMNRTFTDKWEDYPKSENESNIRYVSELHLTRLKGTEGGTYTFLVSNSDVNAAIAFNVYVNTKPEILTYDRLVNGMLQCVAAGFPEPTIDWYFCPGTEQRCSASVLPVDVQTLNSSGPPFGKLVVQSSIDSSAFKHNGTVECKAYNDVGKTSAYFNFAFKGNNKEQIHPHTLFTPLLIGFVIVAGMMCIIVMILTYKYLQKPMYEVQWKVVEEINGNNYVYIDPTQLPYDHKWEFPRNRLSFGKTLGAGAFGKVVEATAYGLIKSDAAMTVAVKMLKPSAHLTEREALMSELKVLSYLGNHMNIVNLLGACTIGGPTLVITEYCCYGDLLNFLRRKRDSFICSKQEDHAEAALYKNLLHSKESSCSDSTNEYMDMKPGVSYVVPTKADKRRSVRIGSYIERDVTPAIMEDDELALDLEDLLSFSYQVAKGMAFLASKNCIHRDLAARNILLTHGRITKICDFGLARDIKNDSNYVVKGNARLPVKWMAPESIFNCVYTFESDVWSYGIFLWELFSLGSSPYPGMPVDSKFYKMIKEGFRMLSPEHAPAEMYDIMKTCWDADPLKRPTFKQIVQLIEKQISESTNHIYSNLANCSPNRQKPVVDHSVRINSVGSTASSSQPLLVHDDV

| SMILES | IC50 |
| --- | --- |
| COC(=O)N1CC(c2nc(-c3ccc(C)c(NC(=O)c4cnn5ccc(C#N)cc45)c3)no2)C1 [Compound I-265] | 50 to 500 nM |

Molecular target: T4, CSF-1R (Homo sapiens, UniProt P07333)
T4 construct: purchased Invitrogen PV3249 (lot 662393N)
Experiment: Caliper biochemical assay, CSF-1R
Conditions: Table 6
Method in brief: as §1

T4 sequence (P07333 20-972): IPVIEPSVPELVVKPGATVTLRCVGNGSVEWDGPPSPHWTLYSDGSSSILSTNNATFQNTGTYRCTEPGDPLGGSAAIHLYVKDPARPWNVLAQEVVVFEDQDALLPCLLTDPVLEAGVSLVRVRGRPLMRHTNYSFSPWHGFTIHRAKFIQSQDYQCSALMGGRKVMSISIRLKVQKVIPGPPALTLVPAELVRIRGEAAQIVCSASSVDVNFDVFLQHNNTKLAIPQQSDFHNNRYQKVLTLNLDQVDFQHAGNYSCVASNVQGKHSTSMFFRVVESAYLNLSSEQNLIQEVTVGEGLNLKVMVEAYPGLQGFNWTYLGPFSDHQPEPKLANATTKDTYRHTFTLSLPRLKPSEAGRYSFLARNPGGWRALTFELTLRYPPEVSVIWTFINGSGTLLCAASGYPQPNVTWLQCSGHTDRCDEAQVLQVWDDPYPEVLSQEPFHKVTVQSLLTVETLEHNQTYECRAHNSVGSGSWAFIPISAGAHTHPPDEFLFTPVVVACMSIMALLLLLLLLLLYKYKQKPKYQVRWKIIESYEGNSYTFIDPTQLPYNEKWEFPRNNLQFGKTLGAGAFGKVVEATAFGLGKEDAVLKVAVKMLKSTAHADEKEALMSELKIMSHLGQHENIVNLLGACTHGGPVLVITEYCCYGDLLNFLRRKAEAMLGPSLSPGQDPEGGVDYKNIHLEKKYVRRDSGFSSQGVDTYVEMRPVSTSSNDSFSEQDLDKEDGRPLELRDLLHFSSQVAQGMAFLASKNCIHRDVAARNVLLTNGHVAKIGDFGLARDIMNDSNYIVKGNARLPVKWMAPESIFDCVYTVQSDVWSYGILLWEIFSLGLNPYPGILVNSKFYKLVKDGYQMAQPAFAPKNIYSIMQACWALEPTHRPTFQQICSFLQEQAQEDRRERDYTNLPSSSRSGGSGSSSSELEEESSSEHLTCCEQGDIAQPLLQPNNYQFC

| SMILES | IC50 |
| --- | --- |
| Cc1ccc(-c2noc(C3CC3(C)C)n2)cc1NC(=O)c1cnc2ccccn12 (stereo not drawn) [Compound I-127] | ≤ 50 nM |
| COC(=O)N1CC(c2nc(-c3ccc(C)c(NC(=O)c4cnn5ccc(C#N)cc45)c3)no2)C1 [Compound I-265] | 5000 to 30000 nM |
| Cc1ccc(-c2noc(C34CC(F)(C3)C4)n2)cc1NC(=O)c1cnc2ccccn12 [Compound I-392] | ≤ 50 nM |
| Cc1nc(-c2ccc(C)c(NC(=O)c3cnn4ccccc34)c2)no1 [Compound I-428] | 500 to 5000 nM |

Molecular target: T3, wtKIT
Experiment: Caliper biochemical assay, wtKIT
Conditions: Table 6, read-out: KIT Biochemical IC50 avg
Method in brief: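 Mobility-shift read-out: after EDTA stop, fluorescent peptide substrate and product resolved electrophoretically on LabChip 3000. Reaction ran 3 h at 25° C with 400 μM ATP, Mn^2+ cofactor, 5.0 nM wtKIT, 1 μM FAM-peptide, pH 7.5 HEPES buffer; no-enzyme wells defined full inhibition.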

| SMILES | IC50 |
| --- | --- |
| Cc1ccc(-c2noc(C3CC3(C)C)n2)cc1NC(=O)c1cnc2ccccn12 (stereo not drawn) [Compound I-127] | ≤ 50 nM |
| COC(=O)N1CC(c2nc(-c3ccc(C)c(NC(=O)c4cnn5ccc(C#N)cc45)c3)no2)C1 [Compound I-265] | 50 to 500 nM |
| Cc1ccc(-c2noc(C34CC(F)(C3)C4)n2)cc1NC(=O)c1cnc2ccccn12 [Compound I-392] | ≤ 50 nM |
| Cc1nc(-c2ccc(C)c(NC(=O)c3cnn4ccccc34)c2)no1 [Compound I-428] | ≤ 50 nM |
